Measurements published in patent publication US9458220B2 (priority 2010, dated 2016).

Tests used:
human insulin receptor = molecular target: T1, human insulin receptor (Homo sapiens, UniProt P06213); assay: Insulin receptor competition binding assay (scintillation proximity); conditions: Table 9
T1 construct: expressed in transfected cells; plasma membrane fragments

human IGF-1 receptor = molecular target: T2, human IGF-1 receptor (Homo sapiens, UniProt P08069); assay: IGF-1 receptor competition binding assay (scintillation proximity); conditions: Table 9
T2 construct: expressed in transfected cells; plasma membrane fragments
T2 sequence (P08069 31-736 limits assumed): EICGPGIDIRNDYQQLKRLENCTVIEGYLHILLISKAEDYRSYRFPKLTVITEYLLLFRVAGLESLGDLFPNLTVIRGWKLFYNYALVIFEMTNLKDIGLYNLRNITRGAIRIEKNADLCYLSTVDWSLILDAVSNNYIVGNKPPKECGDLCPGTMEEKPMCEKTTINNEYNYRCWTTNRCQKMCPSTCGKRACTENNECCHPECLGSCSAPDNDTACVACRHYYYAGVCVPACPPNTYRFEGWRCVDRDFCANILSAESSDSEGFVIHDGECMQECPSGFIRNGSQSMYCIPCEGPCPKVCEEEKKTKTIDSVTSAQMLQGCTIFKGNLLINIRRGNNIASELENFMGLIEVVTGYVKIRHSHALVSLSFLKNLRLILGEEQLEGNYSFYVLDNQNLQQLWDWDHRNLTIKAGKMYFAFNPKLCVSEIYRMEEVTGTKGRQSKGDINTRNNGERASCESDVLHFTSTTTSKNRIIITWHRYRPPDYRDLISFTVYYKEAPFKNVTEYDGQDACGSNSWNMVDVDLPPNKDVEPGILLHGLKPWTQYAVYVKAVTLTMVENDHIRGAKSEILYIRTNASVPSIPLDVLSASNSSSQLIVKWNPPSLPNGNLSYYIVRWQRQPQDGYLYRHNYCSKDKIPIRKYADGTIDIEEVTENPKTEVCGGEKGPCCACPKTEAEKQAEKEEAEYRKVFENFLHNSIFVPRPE
T2 sequence (P08069 741-1367 partner limits assumed): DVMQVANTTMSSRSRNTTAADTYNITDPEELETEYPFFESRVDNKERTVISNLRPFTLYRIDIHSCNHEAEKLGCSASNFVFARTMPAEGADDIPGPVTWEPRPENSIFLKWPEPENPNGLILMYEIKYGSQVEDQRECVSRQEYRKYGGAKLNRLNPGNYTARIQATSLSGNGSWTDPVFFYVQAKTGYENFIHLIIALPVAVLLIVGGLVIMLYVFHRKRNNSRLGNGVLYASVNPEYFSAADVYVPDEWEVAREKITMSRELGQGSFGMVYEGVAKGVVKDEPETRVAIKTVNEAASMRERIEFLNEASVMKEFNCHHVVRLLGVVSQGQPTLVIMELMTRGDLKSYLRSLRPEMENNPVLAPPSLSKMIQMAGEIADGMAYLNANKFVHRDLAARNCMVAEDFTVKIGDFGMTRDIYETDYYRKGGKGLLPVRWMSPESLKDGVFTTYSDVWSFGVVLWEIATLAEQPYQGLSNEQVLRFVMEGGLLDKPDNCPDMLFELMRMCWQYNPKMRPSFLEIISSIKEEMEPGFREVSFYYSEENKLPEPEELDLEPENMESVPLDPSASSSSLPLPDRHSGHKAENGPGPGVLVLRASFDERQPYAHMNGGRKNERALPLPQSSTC

[1] = Dipeptide half life on IGF1 dipeptide extended (p-NH2-F)A19 analogs in PBS; assay type: physicochemical; conditions: Table 12; cleavage of (pNH2-Phe) amide linked dipeptide AibPro from the parent peptide
Protocol: Accordingly, the IGF1A chain alone was determined to be a good model for the study of pro-drug half life on IGF1 B:A (Y^B16L^B17) analog peptides. […] For simplicity, prodrug half lives were determined using only the IGF1 A chain in the absence of the B chain. The half lives of each propeptide was determined as described in Example 5.
The IGF^B16B17 analog peptide prodrugs were incubated in PBS, pH 7.4 at 37° C. and at predetermined time intervals an aliquot was taken and further degradation was quenched with 0.1% TFA and the aliquot was subjected to analytical HPLC analysis. Peaks a and b, representing the prodrug and active forms of the IGF^B16B17 analog peptide were identified with LC-MS and quantified by integration of peak area an HPLC. FIGS. 9A-9C show the output of an HPLC analysis of the degradation of the IGF^B16B17 analog peptide prodrug: IGF1A(Ala)^6,7,11,20(Aib-Pro-pNH—F)^19. Aliquots were taken at 20 minutes (FIG. 9A), 81 minutes (FIG. 9B) and 120 minutes (FIG. 9C) after beginning the incubation of the prodrug in PBS.

T1 sequence (P06213 28-758 limits assumed): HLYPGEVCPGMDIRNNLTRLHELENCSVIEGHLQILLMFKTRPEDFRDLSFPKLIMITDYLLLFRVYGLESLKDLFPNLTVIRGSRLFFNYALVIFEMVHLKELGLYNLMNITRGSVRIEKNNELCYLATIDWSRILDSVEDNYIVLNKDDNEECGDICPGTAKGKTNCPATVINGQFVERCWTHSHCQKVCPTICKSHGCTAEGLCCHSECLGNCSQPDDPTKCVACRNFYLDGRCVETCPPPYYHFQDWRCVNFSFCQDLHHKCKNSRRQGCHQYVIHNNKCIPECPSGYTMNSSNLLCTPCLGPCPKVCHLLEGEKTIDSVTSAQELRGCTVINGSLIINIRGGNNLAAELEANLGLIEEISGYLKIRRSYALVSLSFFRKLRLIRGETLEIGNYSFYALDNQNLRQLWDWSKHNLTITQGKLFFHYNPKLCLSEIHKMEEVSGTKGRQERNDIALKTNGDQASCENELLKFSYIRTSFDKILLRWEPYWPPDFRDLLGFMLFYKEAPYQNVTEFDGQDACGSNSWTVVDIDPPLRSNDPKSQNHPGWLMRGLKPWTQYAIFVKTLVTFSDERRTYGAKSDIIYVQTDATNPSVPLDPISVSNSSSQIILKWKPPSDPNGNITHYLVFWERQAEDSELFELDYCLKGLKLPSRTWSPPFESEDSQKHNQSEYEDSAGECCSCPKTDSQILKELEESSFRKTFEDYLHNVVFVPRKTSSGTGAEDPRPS
T1 sequence (P06213 763-1382 partner limits assumed): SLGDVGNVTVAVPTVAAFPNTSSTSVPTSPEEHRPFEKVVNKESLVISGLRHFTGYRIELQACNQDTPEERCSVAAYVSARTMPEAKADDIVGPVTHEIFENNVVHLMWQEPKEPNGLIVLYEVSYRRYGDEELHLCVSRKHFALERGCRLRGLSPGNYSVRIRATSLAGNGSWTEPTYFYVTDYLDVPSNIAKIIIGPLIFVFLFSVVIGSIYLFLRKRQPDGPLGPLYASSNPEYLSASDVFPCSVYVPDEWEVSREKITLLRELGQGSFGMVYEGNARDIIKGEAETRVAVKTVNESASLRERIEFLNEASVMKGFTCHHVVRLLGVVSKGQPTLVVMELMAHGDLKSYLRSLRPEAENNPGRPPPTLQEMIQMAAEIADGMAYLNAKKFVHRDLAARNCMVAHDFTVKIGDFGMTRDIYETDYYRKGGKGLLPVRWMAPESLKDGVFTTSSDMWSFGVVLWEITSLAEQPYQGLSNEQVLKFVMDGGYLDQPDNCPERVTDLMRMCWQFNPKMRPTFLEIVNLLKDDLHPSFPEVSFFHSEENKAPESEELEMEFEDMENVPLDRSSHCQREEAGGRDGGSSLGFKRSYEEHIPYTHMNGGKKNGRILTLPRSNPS

SMILES: CC[C@H](C)[C@H](NC(=O)CN)C(=O)N[C@H](C(=O)N[C@@H](CC(=O)O)C(=O)N[C@@H](CCC(=O)O)C(=O)N[C@H]1CSSC[C@@H]2NC(=O)[C@H](CO)NC(=O)[C@H](CCCNC(=N)N)NC(=O)[C@H](Cc3ccccc3)NC(=O)[C@H](CSSC[C@H](NC(=O)[C@H](CC(C)C)NC(=O)[C@@H](NC(=O)[C@H](CCC(=O)O)NC(=O)[C@@H]3CCCN3C(=O)CN)[C@@H](C)O)C(=O)NCC(=O)N[C@@H](CO)C(=O)N[C@@H](Cc3c[nH]cn3)C(=O)N[C@@H](CC(C)C)C(=O)N[C@@H](C(C)C)C(=O)N[C@@H](CCC(=O)O)C(=O)N[C@@H](C)C(=O)N[C@@H](CC(C)C)C(=O)N[C@@H](Cc3ccc(O)cc3)C(=O)N[C@@H](CC(C)C)C(=O)N[C@@H](C(C)C)C(=O)N[C@H](C(=O)NCC(=O)N[C@@H](CC(=O)O)C(=O)N[C@@H](CCCNC(=N)N)C(=O)NCC(=O)N[C@@H](Cc3ccccc3)C(=O)N[C@@H](Cc3ccc(O)cc3)C(=O)N[C@@H](Cc3ccccc3)C(=O)N[C@@H](CC(N)=O)C(=O)N[C@@H](CCCCN)C(=O)N3CCC[C@H]3C(=O)N[C@H](C(N)=O)[C@@H](C)O)CSSC[C@@H](C(=O)N[C@@H](C)C(N)=O)NC(=O)[C@H](Cc3ccc(O)cc3)NC(=O)[C@H](CCSC)NC(=O)[C@H](CCC(=O)O)NC(=O)[C@H](CC(C)C)NC(=O)[C@H](CCCNC(=N)N)NC(=O)[C@H](CCCNC(=N)N)NC(=O)[C@H](CC(C)C)NC(=O)[C@H](CC(=O)O)NC2=O)NC1=O)C(C)C
- Insulin Receptor % insulin (in test) (human insulin receptor): 19.1%
- Insulin Receptor % native insulin activity (0.6 nM) (human insulin receptor): 37.7%
- Ratio (human insulin receptor; IGF-1 receptor IC50 over insulin receptor IC50): 22.6
- IGF-1 Receptor % IGF-1 (in test) (human IGF-1 receptor): 0.3%

SMILES: CC[C@H](C)[C@H](NC(=O)CN)C(=O)N[C@H](C(=O)N[C@@H](CC(=O)O)C(=O)N[C@@H](CCC(=O)O)C(=O)N[C@@H](CSCNC(C)=O)C(=O)N[C@@H](CSSC[C@H](NC(=O)[C@H](CC(C)C)NC(=O)[C@@H](NC(=O)[C@H](CCC(=O)O)NC(=O)[C@@H]1CCCN1C(=O)CN)[C@@H](C)O)C(=O)NCC(=O)N[C@@H](C)C(=O)N[C@@H](CCC(=O)O)C(=O)N[C@@H](CC(C)C)C(=O)N[C@H](C(=O)N[C@@H](CC(=O)O)C(=O)N[C@@H](C)C(=O)N[C@@H](CC(C)C)C(=O)N[C@@H](Cc1ccc(O)cc1)C(=O)N[C@@H](CC(C)C)C(=O)N[C@H](C(=O)N[C@@H](CSCNC(C)=O)C(=O)NCC(=O)N[C@@H](CC(=O)O)C(=O)N[C@@H](CCCNC(=N)N)C(=O)NCC(=O)N[C@@H](Cc1ccccc1)C(=O)N[C@@H](Cc1ccc(O)cc1)C(=O)N[C@@H](Cc1ccccc1)C(=O)N[C@@H](CC(N)=O)C(=O)N[C@@H](CCCCN)C(=O)N1CCC[C@H]1C(=O)N[C@H](C(N)=O)[C@@H](C)O)C(C)C)C(C)C)C(=O)N[C@@H](Cc1ccccc1)C(=O)N[C@@H](CCCNC(=N)N)C(=O)N[C@@H](CO)C(=O)N[C@@H](CSCNC(C)=O)C(=O)N[C@@H](CC(=O)O)C(=O)N[C@@H](CC(C)C)C(=O)N[C@@H](CCCNC(=N)N)C(=O)N[C@@H](CCCNC(=N)N)C(=O)N[C@@H](CC(C)C)C(=O)N[C@@H](CCC(=O)O)C(=O)N[C@@H](CCSC)C(=O)N[C@@H](Cc1ccc(NC(=O)[C@@H]2CCCN2C(=O)C(C)(C)N)cc1)C(=O)N[C@@H](CSCNC(C)=O)C(=O)N[C@@H](C)C(=O)O)C(C)C
- Half Life [1]: 1.8 h

SMILES: CC[C@H](C)[C@H](NC(=O)CN)C(=O)N[C@H](C(=O)N[C@@H](CC(=O)O)C(=O)N[C@@H](CCC(=O)O)C(=O)N[C@H]1CSSC[C@@H]2NC(=O)[C@H](CO)NC(=O)[C@H](CCCNC(=N)N)NC(=O)[C@H](Cc3ccccc3)NC(=O)[C@H](CSSC[C@H](NC(=O)[C@H](CC(C)C)NC(=O)[C@@H](NC(=O)[C@H](CCC(=O)O)NC(=O)[C@@H]3CCCN3C(=O)CN)[C@@H](C)O)C(=O)NCC(=O)N[C@@H](C)C(=O)N[C@@H](CCC(=O)O)C(=O)N[C@@H](CC(C)C)C(=O)N[C@@H](C(C)C)C(=O)N[C@@H](CC(=O)O)C(=O)N[C@@H](C)C(=O)N[C@@H](CC(C)C)C(=O)N[C@@H](Cc3ccc(O)cc3)C(=O)N[C@@H](CC(C)C)C(=O)N[C@@H](C(C)C)C(=O)N[C@H](C(=O)NCC(=O)N[C@@H](CC(=O)O)C(=O)N[C@@H](CCCNC(=N)N)C(=O)NCC(=O)N[C@@H](Cc3ccccc3)C(=O)N[C@@H](Cc3ccc(O)cc3)C(=O)N[C@@H](Cc3ccccc3)C(=O)N[C@@H](CC(N)=O)C(=O)N[C@@H](CCCCN)C(=O)N3CCC[C@H]3C(=O)N[C@H](C(N)=O)[C@@H](C)O)CSSC[C@@H](C(=O)N[C@@H](C)C(=O)O)NC(=O)[C@H](Cc3ccc(NC(=O)[C@@H]4CCCN4C(=O)C(C)(C)N)cc3)NC(=O)[C@H](CCSC)NC(=O)[C@H](CCC(=O)O)NC(=O)[C@H](CC(C)C)NC(=O)[C@H](CCCNC(=N)N)NC(=O)[C@H](CCCNC(=N)N)NC(=O)[C@H](CC(C)C)NC(=O)[C@H](CC(=O)O)NC2=O)NC1=O)C(C)C [IGF1 B:A(pNH2-Phe)^A19]
- Half Life [1]: 1.6 h

SMILES: CC[C@H](C)[C@H](NC(=O)CN)C(=O)N[C@H](C(=O)N[C@@H](CC(=O)O)C(=O)N[C@@H](CCC(=O)O)C(=O)N[C@H]1CSSC[C@@H]2NC(=O)[C@H](CO)NC(=O)[C@H](CCCNC(=N)N)NC(=O)[C@H](Cc3ccccc3)NC(=O)[C@H](CSSC[C@H](NC(=O)[C@H](CC(C)C)NC(=O)[C@H](Cc3c[nH]cn3)NC(=O)[C@H](CCC(N)=O)NC(=O)[C@H](CC(N)=O)NC(=O)[C@@H](NC(=O)[C@@H](N)Cc3ccccc3)C(C)C)C(=O)NCC(=O)N[C@@H](C)C(=O)N[C@@H](CCC(=O)O)C(=O)N[C@@H](CC(C)C)C(=O)N[C@@H](C(C)C)C(=O)N[C@@H](CC(=O)O)C(=O)N[C@@H](C)C(=O)N[C@@H](CC(C)C)C(=O)N[C@@H](Cc3ccc(O)cc3)C(=O)N[C@@H](CC(C)C)C(=O)N[C@@H](C(C)C)C(=O)N[C@H](C(=O)NCC(=O)N[C@@H](CC(=O)O)C(=O)N[C@@H](CCCNC(=N)N)C(=O)NCC(=O)N[C@@H](Cc3ccccc3)C(=O)N[C@@H](Cc3ccc(O)cc3)C(=O)N[C@@H](Cc3ccccc3)C(=O)N[C@@H](CC(N)=O)C(=O)N[C@@H](CCCCN)C(=O)N3CCC[C@H]3C(=O)N[C@H](C(N)=O)[C@@H](C)O)CSSC[C@@H](C(=O)N[C@@H](C)C(N)=O)NC(=O)[C@H](Cc3ccc(O)cc3)NC(=O)[C@H](CCSC)NC(=O)[C@H](CCC(=O)O)NC(=O)[C@H](CC(C)C)NC(=O)[C@H](CCCNC(=N)N)NC(=O)[C@H](CCCNC(=N)N)NC(=O)[C@H](CC(C)C)NC(=O)[C@H](CC(=O)O)NC2=O)NC1=O)C(C)C [IGF-1 A: In B (1-5)-IGF-1 B (YL) (6-30)]
- Insulin Receptor % insulin (in test) (human insulin receptor): 62.4%
- Insulin Receptor % native insulin activity (0.6 nM) (human insulin receptor): 193.5%
- IGF-1 Receptor % IGF-1 (in test) (human IGF-1 receptor): 3.6%
